This assay concerns the target T1, GLP-1R (Homo sapiens, UniProt P43220).
T1 construct: host or cells: CHO cells
Nature of the assay: GLP-1R activation cAMP assay (Assay 1 or Assay 2). In kind it is cell-based. The conditions noted are these: cAMP increase in CHO cells stably expressing GLP-1R; compounds run on one of the two cAMP assays. An outline of the steps:
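EC50 values come from a sigmoidal fit of HTRF-detected cAMP rise versus log agonist concentration. GLP-1R-expressing CHO cells, equilibrated 1 h at 37 °C in HBSS with HEPES and BSA, received a 10-point compound dose series for 30 min before detection.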
Background: Changes in cAMP serve as a functional read-out for many G protein-coupled receptors.
T1 sequence (P43220 24-463): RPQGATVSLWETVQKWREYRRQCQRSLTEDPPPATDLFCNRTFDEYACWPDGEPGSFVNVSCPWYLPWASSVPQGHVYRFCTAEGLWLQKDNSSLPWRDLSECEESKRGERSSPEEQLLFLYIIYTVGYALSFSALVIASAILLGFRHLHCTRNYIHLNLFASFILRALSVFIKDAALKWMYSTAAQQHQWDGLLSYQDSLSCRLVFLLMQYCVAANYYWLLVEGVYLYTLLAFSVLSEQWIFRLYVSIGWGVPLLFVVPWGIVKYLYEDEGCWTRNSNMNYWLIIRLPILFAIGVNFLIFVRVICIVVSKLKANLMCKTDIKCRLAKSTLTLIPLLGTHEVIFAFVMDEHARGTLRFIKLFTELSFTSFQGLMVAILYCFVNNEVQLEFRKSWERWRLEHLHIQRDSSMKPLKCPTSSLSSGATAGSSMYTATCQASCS
As to `CC(C)(C)C#Cc1cnc(COc2cccc(-c3cc(F)c(Cc4nc5ccc(C(=O)O)cc5n4C[C@@H]4CCO4)cc3F)n2)s1` [Example 320, (S)-2-(4-(6-((5-(3,3-dimethylbut-1-yn-1-yl)thiazol-2-yl)methoxy)pyridin-2-yl)-2,5-difluorobenzyl)-1-(oxetan-2-ylmethyl)-1H-benzo[d]imidazole-6-carboxylic acid], the EC50 – broadly, the concentration needed to bring the measured effect to its halfway point – came out at 537 pM. That is a sub-nanomolar value.
Under `COc1nnc(COc2cccc(-c3cc(F)c(Cc4nc5c(F)cc(C(=O)O)cc5n4[C@@H]4COCC4(C)C)c(F)c3)n2)s1` [Example 439, (S)-2-(2,6-difluoro-4-(6-((5-methoxy-1,3,4-thiadiazol-2-yl)methoxy)pyridin-2-yl)benzyl)-1-(4,4-dimethyltetrahydrofuran-3-yl)-4-fluoro-1H-benzo[d]imidazole-6-carboxylic acid] stands 397 pM; under `COc1nnc(COc2cccc(-c3cc(F)c(Cc4nc5ccc(C(=O)O)cc5n4CC4(CF)CC4)cc3F)n2)s1` [Example 272, 2-(2,5-difluoro-4-(6-((5-methoxy-1,3,4-thiadiazol-2-yl)methoxy)pyridin-2-yl)benzyl)-1-((1-(fluoromethyl)cyclopropyl)methyl)-1H-benzo[d]imidazole-6-carboxylic acid], 1900 pM; under `N#Cc1nc(COc2cccc(-c3cc(F)c(Cc4nc5ccc(C(=O)O)cc5n4C[C@@H]4CCO4)cc3F)n2)cs1` [Example 170, (S)-2-(4-(6-((2-cyanothiazol-4-yl)methoxy)pyridin-2-yl)-2,5-difluorobenzyl)-1-(oxetan-2-ylmethyl)-1H-benzo[d]imidazole-6-carboxylic acid], 8290 pM.
The value for `O=C(O)c1ccc2nc(Cc3cc(F)c(-c4cccc(OCc5cc(C(F)(F)F)cs5)n4)cc3F)n(C[C@@H]3CCO3)c2c1` [Example 55, (S)-2-(2,5-difluoro-4-(6-((4-(trifluoromethyl)thiophen-2-yl)methoxy)pyridin-2-yl)benzyl)-1-(oxetan-2-ylmethyl)-1H-benzo[d]imidazole-6-carboxylic acid] was 440 pM.
Molecule `Cn1cc(C#Cc2ccc(COc3nc(-c4cc(F)c(Cc5nc6c(F)cc(C(=O)O)cc6n5C[C@@H]5CCO5)cc4F)ccc3F)cn2)cn1` [Example 295, (S)-2-(2,5-difluoro-4-(5-fluoro-6-((6-((1-methyl-1H-pyrazol-4-yl)ethynyl)pyridin-3-yl)methoxy)pyridin-2-yl)benzyl)-4-fluoro-1-(oxetan-2-ylmethyl)-1H-benzo[d]imidazole-6-carboxylic acid] yielded an EC50 of 202 pM.
`NC(=O)c1cc(F)c(COc2cccc(-c3cc(F)c(Cc4nc5c(F)cc(C(=O)O)cc5n4C[C@@H]4CCO4)cc3F)n2)cn1` [Example 241, (S)-2-(4-(6-((6-carbamoyl-4-fluoropyridin-3-yl)methoxy)pyridin-2-yl)-2,5-difluorobenzyl)-4-fluoro-1-(oxetan-2-ylmethyl)-1H-benzo[d]imidazole-6-carboxylic acid]: the EC50 was 120 pM.
Under `Cn1cc(C#Cc2ccc(COc3cccc(-c4cc(F)c(Cc5nc6ccc(C(=O)O)cc6n5C[C@@H]5CCO5)cc4F)n3)cn2)cn1` [Example 147, (S)-2-(2,5-difluoro-4-(6-((6-((1-methyl-1H-pyrazol-4-yl)ethynyl)pyridin-3-yl)methoxy)pyridin-2-yl)benzyl)-1-(oxetan-2-ylmethyl)-1H-benzo[d]imidazole-6-carboxylic acid] stands 600 pM; under `O=C(O)c1ccc2nc(Cc3cc(F)c(-c4cccc(OCc5csc(Cl)n5)n4)cc3F)n(C[C@@H]3CCO3)c2c1` [Example 50, (S)-2-(4-(6-((2-chlorothiazol-4-yl)methoxy)pyridin-2-yl)-2,5-difluorobenzyl)-1-(oxetan-2-ylmethyl)-1H-benzo[d]imidazole-6-carboxylic acid], 670 pM; under `NC(=O)CNC(=O)c1ccc(COc2cccc(-c3cc(F)c(Cc4nc5ccc(C(=O)O)cc5n4C[C@@H]4CCO4)cc3F)n2)cn1` [Example 176, (S)-2-(4-(6-((6-((2-amino-2-oxoethyl)carbamoyl)pyridin-3-yl)methoxy)pyridin-2-yl)-2,5-difluorobenzyl)-1-(oxetan-2-ylmethyl)-1H-benzo[d]imidazole-6-carboxylic acid], 2190 pM.
`CNC(=O)c1cc(Cl)c(COc2cccc(-c3cc(F)c(Cc4nc5ccc(C(=O)O)cc5n4CC4(CF)CC4)c(F)c3F)c2)cn1` [Example 451, 2-((3′-((4-chloro-6-(methylcarbamoyl)pyridin-3-yl)methoxy)-2,3,5-trifluoro-[1,1′-biphenyl]-4-yl)methyl)-1-((1-(fluoromethyl)cyclopropyl)methyl)-1H-benzo[d]imidazole-6-carboxylic acid] came in with an EC50 of 611 pM.
The value for `Cn1cncc1-c1cnc(COc2cccc(-c3cc(F)c(Cc4nc5ccc(C(=O)O)cc5n4C[C@@H]4CCO4)cc3F)n2)s1` [Example 102, (S)-2-(2,5-difluoro-4-(6-((5-(1-methyl-1H-imidazol-5-yl)thiazol-2-yl)methoxy)pyridin-2-yl)benzyl)-1-(oxetan-2-ylmethyl)-1H-benzo[d]imidazole-6-carboxylic acid] was 13600 pM.
`O=C(O)c1cc(Cl)c2nc(Cc3cc(F)c(-c4cccc(OCc5ncc(C(F)(F)F)s5)n4)cc3F)n(C[C@@H]3CCO3)c2c1` [Example 445, (S)-4-chloro-2-(2,5-difluoro-4-(6-((5-(trifluoromethyl)thiazol-2-yl)methoxy)pyridin-2-yl)benzyl)-1-(oxetan-2-ylmethyl)-1H-benzo[d]imidazole-6-carboxylic acid] displayed an EC50 of 101 pM.
Under `CNC(=O)c1cc(Cl)c(COc2cccc(-c3cc(F)c(Cc4nc5c(F)cc(C(=O)O)cc5n4CC4(CF)CC4)cc3F)n2)cn1` [Example 417, 2-(4-(6-((4-chloro-6-(methylcarbamoyl)pyridin-3-yl)methoxy)pyridin-2-yl)-2,5-difluorobenzyl)-4-fluoro-1-((1-(fluoromethyl)cyclopropyl)methyl)-1H-benzo[d]imidazole-6-carboxylic acid] stands 260 pM; under `O=C(O)c1ccc2nc(Cc3cc(F)c(-c4cccc(OCc5nnc(C#CC6CC(F)(F)C6)s5)n4)cc3F)n(C[C@@H]3CCO3)c2c1` [Example 330, (S)-2-(4-(6-((5-((3,3-difluorocyclobutyl)ethynyl)-1,3,4-thiadiazol-2-yl)methoxy)pyridin-2-yl)-2,5-difluorobenzyl)-1-(oxetan-2-ylmethyl)-1H-benzo[d]imidazole-6-carboxylic acid], 431 pM.
The value for `COc1nnc(COc2cccc(-c3cc(F)c(Cc4nc5ccc(C(=O)O)cc5n4C4COCC4(C)C)c(F)c3F)n2)s1` (centres unmarked) [Example 282, 1-(4,4-dimethyltetrahydrofuran-3-yl)-2-(2,3,6-trifluoro-4-(6-((5-methoxy-1,3,4-thiadiazol-2-yl)methoxy)pyridin-2-yl)benzyl)-1H-benzo[d]imidazole-6-carboxylic acid] was 311 pM.
`O=C(O)c1cc(F)c2nc(Cc3c(F)cc(-c4cccc(OCc5ncc(C(F)(F)F)s5)n4)c(F)c3F)n(C[C@@H]3CCO3)c2c1` [Example 449, (S)-4-fluoro-1-(oxetan-2-ylmethyl)-2-(2,3,6-trifluoro-4-(6-((5-(trifluoromethyl)thiazol-2-yl)methoxy)pyridin-2-yl)benzyl)-1H-benzo[d]imidazole-6-carboxylic acid] registered an EC50 of 81 pM.
In turn, `O=C(O)c1ccc2nc(Cc3cc(F)c(-c4cccc(OCc5cnc(C(=O)NC6COC6)cc5F)n4)cc3F)n(C[C@@H]3CCO3)c2c1` [Example 247, (S)-2-(2,5-difluoro-4-(6-((4-fluoro-6-(oxetan-3-ylcarbamoyl)pyridin-3-yl)methoxy)pyridin-2-yl)benzyl)-1-(oxetan-2-ylmethyl)-1H-benzo[d]imidazole-6-carboxylic acid] came in with an EC50 of 250 pM.
The value for `CN(C)C(=O)c1ccc(COc2cccc(-c3cc(F)c(Cc4nc5ccc(C(=O)O)cc5n4C[C@@H]4CCO4)cc3F)n2)cn1` [Example 44, (S)-2-(4-(6-((6-(dimethylcarbamoyl)pyridin-3-yl)methoxy)pyridin-2-yl)-2,5-difluorobenzyl)-1-(oxetan-2-ylmethyl)-1H-benzo[d]imidazole-6-carboxylic acid] was 75300 pM.
The value for `O=C(O)c1ccc2nc(Cc3cc(F)c(-c4cccc(OCc5ccc(C#Cc6cn[nH]c6)nc5)n4)cc3F)n(C[C@@H]3CCO3)c2c1` [Example 438, (S)-2-(4-(6-((6-((1H-pyrazol-4-yl)ethynyl)pyridin-3-yl)methoxy)pyridin-2-yl)-2,5-difluorobenzyl)-1-(oxetan-2-ylmethyl)-1H-benzo[d]imidazole-6-carboxylic acid] was 335 pM; that for `CC1(C)COC[C@H]1n1c(Cc2cc(F)c(-c3cccc(OCc4sc(C#N)cc4F)n3)cc2F)nc2ccc(C(=O)O)cc21` [Example 419, (S)-2-(4-(6-((5-cyano-3-fluorothiophen-2-yl)methoxy)pyridin-2-yl)-2,5-difluorobenzyl)-1-(4,4-dimethyltetrahydrofuran-3-yl)-1H-benzo[d]imidazole-6-carboxylic acid] was 96 pM; that for `NC(=O)c1cnc(COc2cccc(-c3cc(F)c(Cc4nc5ccc(C(=O)O)cc5n4C[C@@H]4CCO4)cc3F)n2)s1` [Example 3, (S)-2-(4-(6-((5-carbamoylthiazol-2-yl)methoxy)pyridin-2-yl)-2,5-difluorobenzyl)-1-(oxetan-2-ylmethyl)-1H-benzo[d]imidazole-6-carboxylic acid] was 3150 pM.
The value for `O=C(O)c1ccc2nc(Cc3c(F)cc(-c4ccc(F)c(OCc5ncc(C(F)(F)F)s5)n4)c(F)c3F)n(C[C@@H]3CCO3)c2c1` [Example 446, (S)-1-(oxetan-2-ylmethyl)-2-(2,3,6-trifluoro-4-(5-fluoro-6-((5-(trifluoromethyl)thiazol-2-yl)methoxy)pyridin-2-yl)benzyl)-1H-benzo[d]imidazole-6-carboxylic acid] was 170 pM.

(Values after patent publication US20250312352A1, “GLP-1R MODULATING COMPOUNDS” (Gilead Sciences, Inc., priority 2021, published 2025).)
